The first assay deals with T1, Human immunodeficiency virus type 1 protease (Human immunodeficiency virus 1, UniProt Q72874). As to the kind of experiment: Inhibitory activity was evaluated against HIV-1 protease; Not Active.
Regarding `COP1(=O)C(Cc2ccccc2)N(Cc2ccccc2)C(=O)N(Cc2ccccc2)C1Cc1ccccc1` (stereo not drawn), the IC50 result is on record as “Not Active”.

`COP1(=O)C(Cc2ccccc2)NC(=O)NC1Cc1ccccc1` (stereo not drawn): the IC50 result was “Not Active”.

In the case of `COP1(=O)C(Cc2ccccc2)N(Cc2ccc(CBr)cc2)C(=O)N(Cc2ccc(CBr)cc2)C1Cc1ccccc1` (stereo not drawn), the 50% inhibitory concentration (IC50) result was “Not Active”.

On to `COP1(=O)C(Cc2ccccc2)N(Cc2ccc3ccccc3c2)C(=O)N(Cc2ccc3ccccc3c2)C1Cc1ccccc1` (stereo not drawn), for which the IC50 entry is recorded as “Not Active”.

As to `COP1(=O)C(Cc2ccccc2)N(Cc2ccc(CO)cc2)C(=O)N(Cc2ccc(CO)cc2)C1Cc1ccccc1` (stereo not drawn), the IC50 entry is reported as “Not Active”.

Another assay deals with T1, Human immunodeficiency virus type 1 protease. As to the kind of experiment: Inhibitory activity was evaluated against HIV-1 protease.
Compound `O=C1N(Cc2ccc(CBr)cc2)C(Cc2ccccc2)P(=O)(O)C(Cc2ccccc2)N1Cc1ccc(CBr)cc1` (stereo not drawn) showed an IC50 of 18 µM.

On to `O=C1N(Cc2ccccc2)C(Cc2ccccc2)P(=O)(O)C(Cc2ccccc2)N1Cc1ccccc1` (stereo not drawn), for which half-maximal inhibition (IC50) was put at 21 µM.

For `O=C1N(Cc2ccc(CO)cc2)C(Cc2ccccc2)P(=O)(O)C(Cc2ccccc2)N1Cc1ccc(CO)cc1` (stereo not drawn), the IC50 came to 4.8 µM.

`O=C1NC(Cc2ccccc2)P(=O)(O)C(Cc2ccccc2)N1` (stereo not drawn): the IC50 was greater than 100 µM.

Compound `O=C1N(Cc2ccc3ccccc3c2)C(Cc2ccccc2)P(=O)(O)C(Cc2ccccc2)N1Cc1ccc2ccccc2c1` (racemic) had an IC50 of 0.26 µM.

Take `O=C1N(Cc2ccc(CBr)cc2)C(Cc2ccccc2)P(=O)(O)C(Cc2ccccc2)N1Cc1ccc(CBr)cc1` (racemic): the IC50 is 0.7 µM.

In turn, `O=C1N(Cc2ccc(CO)cc2)C(Cc2ccccc2)P(=O)(O)C(Cc2ccccc2)N1Cc1ccc(CO)cc1` (racemic) yielded an IC50 of 0.24 µM.

As for `O=C1NC(Cc2ccccc2)P(=O)(O)C(Cc2ccccc2)N1` (racemic), the IC50 is greater than 100 µM.

One may read the IC50 as the concentration at which inhibition is half-maximal. A low value points to inhibition by little substance.

The values are drawn from ChEMBL document CHEMBL1128012, “Non-peptide-based inhibitors of human immunodeficiency virus-1 protease” (Bioorg Med Chem Lett, 1994).
